Measured values taken from patent US20260102359A1, “COMBINATION TREATMENT OF DERMAL AND TRANSDERMAL FIBROTIC DISEASES, DISORDERS AND ASSOCIATED PAIN AND INFLAMMATION” (ERESINA, LLC, priority 2022, published 2026).

Tested on: hDMFa myofibroblast cells

Question: With `OC1OC[C@H](O)[C@H](O)[C@H]1O` (mixture of isomers) [Cmpd 560, L-Arabinose] as the compound, how does the “Compound Myofibroblast Cytotoxicity Activity” value read?
Answer: ++++

Question: Which “Compound Myofibroblast Cytotoxicity Activity” value does the source give for `OC[C@H]1O[C@H](O[C@H]2[C@H](O)[C@@H](O)[C@@H](O[C@H]3[C@H](O)[C@@H](O)C(O)O[C@@H]3CO)O[C@@H]2CO)[C@H](O)[C@@H](O)[C@@H]1O` (mixture of isomers) [Cmpd 634, Maltotriose] here?
Answer: +++

Question: `CC(C)NCC(O)COc1ccc(CC(N)=O)cc1` (racemic) [Cmpd 14, (±)-Atenolol] was tested. Which “Compound Myofibroblast Cytotoxicity Activity” value did it give?
Answer: +++

Question: With `CC1CCC(C(C)C)C(O)C1` (racemic) [Cmpd 16, (±)-Menthol] as the compound, how does the “Compound Myofibroblast Cytotoxicity Activity” value read?
Answer: ++

Question: With `CCCCCCCCCCCCCCCC(=O)OC(CC(=O)O)C[N+](C)(C)C.[Cl-]` (racemic) [Cmpd 17, (±)-Palmitoylcarnitine chloride] as the compound, how does the “Compound Myofibroblast Cytotoxicity Activity” value read?
Answer: ++

Question: With `CC1=CCC2CC1C2(C)C` (racemic) [Cmpd 18, (±)-α-Pinene] as the compound, how does the “Compound Myofibroblast Cytotoxicity Activity” value read?
Answer: ++

Question: How did the “Compound Myofibroblast Cytotoxicity Activity” value turn out when `O[C@H](CS)[C@H](O)CS` (racemic) [Cmpd 368, DL-Dithiothreitol] was run?
Answer: ++++

Question: For `CSCCC(N)C(=O)O` (racemic) [Cmpd 369, DL-Methionine], which “Compound Myofibroblast Cytotoxicity Activity” value is on record?
Answer: ++

Question: For `CC(C)(CO)C(O)C(=O)NCCCO` (racemic) [Cmpd 370, DL-Panthenol], which “Compound Myofibroblast Cytotoxicity Activity” value is on record?
Answer: +++

Question: How did the “Compound Myofibroblast Cytotoxicity Activity” value turn out when `Cl.NCCCC(N)(C(=O)O)C(F)F` (racemic) [Cmpd 371, DL-α-Difluoromethylornithine (hydrochloride hydrate)] was run?
Answer: ++

Question: With `Cc1c(C)c2c(c(C)c1O)CCC(C)(CCCC(C)CCCC(C)CCCC(C)C)O2` (racemic) [Cmpd 373, DL-α-Tocopherol] as the compound, how does the “Compound Myofibroblast Cytotoxicity Activity” value read?
Answer: ++

Question: How did the “Compound Myofibroblast Cytotoxicity Activity” value turn out when `CCC/C=C1\OC(=O)C2=C1CCC=C2` [Cmpd 2, Z-Ligustilide] was run?
Answer: ++

Question: For `C/C=C/c1cc(OC)c(OC)cc1OC` [Cmpd 3, α-Asarone], which “Compound Myofibroblast Cytotoxicity Activity” value is on record?
Answer: ++

Question: Which “Compound Myofibroblast Cytotoxicity Activity” value does the source give for `C=C1CC/C=C(\C)CC[C@@H]2[C@@H]1CC2(C)C` [Cmpd 8, β-Caryophyllene] here?
Answer: +++

Question: With `CCCCC/C=C\C/C=C\C/C=C\CCCCC(=O)O` [Cmpd 9, γ-Linolenic Acid] as the compound, how does the “Compound Myofibroblast Cytotoxicity Activity” value read?
Answer: +++

Question: Which “Compound Myofibroblast Cytotoxicity Activity” value does the source give for `CC12CCC(CC1=O)C2(C)C` (stereo not drawn) [Cmpd 11, (+)-Camphor] here?
Answer: ++

Question: `CC1=CC[C@@H]2C[C@H]1C2(C)C` [Cmpd 19, (1R)-(+)-α-Pinene] was tested. Which “Compound Myofibroblast Cytotoxicity Activity” value did it give?
Answer: +

Question: How did the “Compound Myofibroblast Cytotoxicity Activity” value turn out when `CC1=CC(=O)[C@H]2C[C@@H]1C2(C)C` [Cmpd 20, (1S)-(−)-Verbenone] was run?
Answer: ++

Question: With `CC1=CC[C@H]2C[C@@H]1C2(C)C` [Cmpd 21, (1S)-(-)-α-Pinene] as the compound, how does the “Compound Myofibroblast Cytotoxicity Activity” value read?
Answer: ++

Question: With `C=C1CC[C@H]2C[C@@H]1C2(C)C` [Cmpd 22, (1S)-(-)-β-Pinene] as the compound, how does the “Compound Myofibroblast Cytotoxicity Activity” value read?
Answer: ++

Question: For `Cl.N[C@H](C=O)[C@@H](O)[C@H](O)[C@H](O)CO` [Cmpd 23, (2S,3R,4S,5R)-2-Amino-3,4,5,6-tetrahydroxyhexanal hydrochloride], which “Compound Myofibroblast Cytotoxicity Activity” value is on record?
Answer: ++

Question: Which “Compound Myofibroblast Cytotoxicity Activity” value does the source give for `C=C(C)[C@@H]1CC=C(C)C(=O)C1` [Cmpd 24, (R)-(−)-Carvone] here?
Answer: ++

Question: With `C[C@@H](Oc1cc(-c2cnn(C3CCNCC3)c2)cnc1N)c1c(Cl)ccc(F)c1Cl` [Cmpd 27, (R)-Crizotinib] as the compound, how does the “Compound Myofibroblast Cytotoxicity Activity” value read?
Answer: ++++

Question: Which “Compound Myofibroblast Cytotoxicity Activity” value does the source give for `C=C(C)[C@H]1CC=C(C)C(=O)C1` [Cmpd 28, (S)-(+)-Carvone] here?
Answer: ++

Question: Which “Compound Myofibroblast Cytotoxicity Activity” value does the source give for `C[C@H](Oc1cc(-c2cnn(C3CCNCC3)c2)cnc1N)c1c(Cl)ccc(F)c1Cl` [Cmpd 29, (S)-Crizotinib] here?
Answer: ++++

Question: How did the “Compound Myofibroblast Cytotoxicity Activity” value turn out when `C[C@H](C(=O)O)c1ccc(-c2ccccc2)c(F)c1` [Cmpd 30, (S)-Flurbiprofen] was run?
Answer: ++++

Question: With `COc1ccc2cc([C@H](C)C(=O)O)ccc2c1` [Cmpd 32, (S)-Naproxen] as the compound, how does the “Compound Myofibroblast Cytotoxicity Activity” value read?
Answer: ++

Question: `CCCCCCCC/C=C\CCCCCCCC(=O)OCC(C[N+](C)(C)C)OC(=O)CCCCCCC/C=C\CCCCCCCC.[Cl-]` (stereo not drawn) [Cmpd 33, 1,2-Dioleoyl-3-trimethylammoniumpropane (chloride)] was tested. Which “Compound Myofibroblast Cytotoxicity Activity” value did it give?
Answer: +++

Question: Which “Compound Myofibroblast Cytotoxicity Activity” value does the source give for `Oc1ncnc2[nH]ncc12` [Cmpd 37] here?
Answer: +

Question: `C=CCCCCCCCCC(=O)O` [Cmpd 39, 10-Undecenoic acid] was tested. Which “Compound Myofibroblast Cytotoxicity Activity” value did it give?
Answer: ++

Question: Which “Compound Myofibroblast Cytotoxicity Activity” value does the source give for `C=CCNC1=C2C[C@@H](C)C[C@H](OC)[C@H](O)[C@@H](C)/C=C(\C)[C@H](OC(N)=O)[C@@H](OC)/C=C\C=C(/C)C(=O)NC(=CC1=O)C2=O` [Cmpd 40, 17-AAG (KOS953)] here?
Answer: +++

Question: How did the “Compound Myofibroblast Cytotoxicity Activity” value turn out when `CCCCCCCCCCCCCCO` [Cmpd 43, 1-Tetradecanol] was run?
Answer: +

Question: How did the “Compound Myofibroblast Cytotoxicity Activity” value turn out when `O=CC[C@H](O)[C@H](O)CO` [Cmpd 46, 2-Deoxy-D-ribose] was run?
Answer: ++++

Question: How did the “Compound Myofibroblast Cytotoxicity Activity” value turn out when `O=c1ccn([C@H]2C[C@H](O)[C@@H](CO)O2)c(=O)[nH]1` [Cmpd 47, 2-Deoxyuridine] was run?
Answer: ++

Question: For `O=C(O)c1cc(O)cc(O)c1` [Cmpd 50, 3-5-Dihydroxybenzoic Acid], which “Compound Myofibroblast Cytotoxicity Activity” value is on record?
Answer: ++

Question: For `CC(=O)O[C@@H]1CC[C@@]2(C)[C@@H](CC[C@]3(C)[C@@H]2C(=O)C=C2[C@@H]4[C@@H](C)[C@H](C)CC[C@]4(C)CC[C@]23C)[C@@]1(C)C(=O)O` [Cmpd 51, 3-acetyl-11-keto-β-Boswellic Acid], which “Compound Myofibroblast Cytotoxicity Activity” value is on record?
Answer: +++++

Question: For `Cc1occc(=O)c1O` [Cmpd 52], which “Compound Myofibroblast Cytotoxicity Activity” value is on record?
Answer: ++

Question: For `CCCCC1OC(=O)c2ccccc21` (stereo not drawn) [Cmpd 54, 3-n-Butylphathlide], which “Compound Myofibroblast Cytotoxicity Activity” value is on record?
Answer: ++

Question: How did the “Compound Myofibroblast Cytotoxicity Activity” value turn out when `NCc1ccc(C(=O)O)cc1` [Cmpd 56] was run?
Answer: ++

Question: With `Nc1ccc(C(=O)O)c(O)c1` [Cmpd 59, 4-Aminosalicylic acid] as the compound, how does the “Compound Myofibroblast Cytotoxicity Activity” value read?
Answer: ++

Question: For `O=C(O)Cc1ccc(-c2ccccc2)cc1` [Cmpd 60, 4-Biphenylacetic acid], which “Compound Myofibroblast Cytotoxicity Activity” value is on record?
Answer: ++

Question: For `O=C(O)c1ccc(O)cc1` [Cmpd 61], which “Compound Myofibroblast Cytotoxicity Activity” value is on record?
Answer: ++++

Question: With `Cc1cc(=O)oc2cc(O)ccc12` [Cmpd 63, 4-Methylumbelliferone (4-MU)] as the compound, how does the “Compound Myofibroblast Cytotoxicity Activity” value read?
Answer: ++++

Question: How did the “Compound Myofibroblast Cytotoxicity Activity” value turn out when `Nc1ncn([C@@H]2O[C@H](CO)[C@@H](O)[C@H]2O)c(=O)n1` [Cmpd 64, 5-Azacytidine] was run?
Answer: +++

Question: How did the “Compound Myofibroblast Cytotoxicity Activity” value turn out when `O=Cc1ccc(CO)o1` [Cmpd 66] was run?
Answer: ++

Question: `O=c1ccc2cc(O)c(O)cc2o1` [Cmpd 69] was tested. Which “Compound Myofibroblast Cytotoxicity Activity” value did it give?
Answer: ++

Question: With `Br.NCCc1cc(O)c(O)cc1O` [Cmpd 72] as the compound, how does the “Compound Myofibroblast Cytotoxicity Activity” value read?
Answer: ++++

Question: `Oc1cccc2cccnc12` [Cmpd 74, 8-Hydroxyquinoline] was tested. Which “Compound Myofibroblast Cytotoxicity Activity” value did it give?
Answer: ++

Question: With `CC(=O)O[C@H]1CC[C@@]2(C)C(=CC[C@@H]3[C@@H]2CC[C@]2(C)C(c4cccnc4)=CC[C@@H]32)C1` [Cmpd 75, Abiraterone acetate] as the compound, how does the “Compound Myofibroblast Cytotoxicity Activity” value read?
Answer: +++

Question: How did the “Compound Myofibroblast Cytotoxicity Activity” value turn out when `CC1(C)CCC(c2ccc(Cl)cc2)=C(CN2CCN(c3ccc(C(=O)NS(=O)(=O)c4ccc(N[C@H](CCN5CCOCC5)CSc5ccccc5)c(S(=O)(=O)C(F)(F)F)c4)cc3)CC2)C1` [Cmpd 77, ABT-263 (Navitoclax)] was run?
Answer: +++++

Question: For `CC(=O)Nc1ccccc1` [Cmpd 79, Acetanilide], which “Compound Myofibroblast Cytotoxicity Activity” value is on record?
Answer: ++++
